One assay concerns SAUR 9213. Nature of the assay: In vitro MIC by standard agar dilution method, SAUR 9213. It is filed as cell-based, S. aureus. The note with it: Staphylococcus aureus, read-out: SAUR 9213 MIC (Minimum Inhibitory Concentration). An excerpt:
(§1) The oxazolidinone antibacterial agents of this invention have useful activity against a variety of organisms. The in vitro activity of compounds of this invention can be assessed by standard testing procedures such as the determination of minimum inhibitory concentration (MIC) by agar dilution as described in “Approved Standard. Methods for Dilution Antimicrobial Susceptibility Tests for Bacteria That Grow Aerobically”, 3rd. ed., published 1993 by the National Committee for Clinical Laboratory Standards, Villanova, Pa., USA.
(§2) The in vitro MICs of test compounds were determined by a standard agar dilution method. A stock drug solution of each analog was prepared in the preferred solvent, usually DMSO: H2O (1:3). Serial 2-fold dilutions of each sample are made using 1.0 ml aliquots of sterile distilled water. To each 1.0 ml aliquot of drug was added 9 ml of molten Mueller Hinton agar medium. The drug-supplemented agar was mixed, poured into 15×100 mm petri dishes, and allowed to solidify and dry prior to inoculation.
(§3) Vials of each of the test organisms are maintained frozen in the vapor phase of a liquid nitrogen freezer. Test cultures are grown overnight at 35° C. on the medium appropriate for the organism. Colonies are harvested with a sterile swab, and cell suspensions are prepared in Trypticase Soy broth (TSB) to equal the turbidity of a 0.5 McFarland standard. A 1:20 dilution of each suspension was made in TSB. The plates containing the drug supplemented agar are inoculated with a 0.001 ml drop of the cell suspension using a Steers replicator, yielding approximately 10^4 to 10^5 cells per spot. The plates are incubated overnight at 35° C.
(§4) Following incubation the Minimum Inhibitory Concentration (MIC μg/ml), the lowest concentration of drug that inhibits visible growth of the organism, was read and recorded.

The subject of the next assay is SPNE 9912. Nature of the assay: In vitro MIC by standard agar dilution method, SPNE 9912. The note with it: read-out: SPNE 9912 MIC (Minimum Inhibitory Concentration). It is filed as cell-based.
Excerpt: as §1, §2, §3, §4

A further assay relates to HINF 30063. Nature of the assay: In vitro MIC by standard agar dilution method, HINF 30063. It is filed as cell-based, H. influenzae. The note with it: Haemophilus influenzae, read-out: HINF 30063 MIC (Minimum Inhibitory Concentration).
Excerpt: as §1, §2, §3, §4

[1] abbreviates: agar dilution, Mueller Hinton agar, incubated overnight at 35° C., lowest concentration that inhibits visible growth.

The structures appear in SMILES notation. ≈ marks a conversion by molar mass, not a printed value. Where a name gives a salt, the structure may show the parent alone. Read-outs that look alike come from different tables or passages of the source.

Take `CC(=O)NC[C@H]1CN(c2ccc(N3CCN(C(=O)CCCC#Cc4ccc(CN)cc4)CC3)c(F)c2)C(=O)O1` [Compound 26, N-({(5S)-3-[4-(4-{6-[4-(aminomethyl)phenyl]hex-5-ynoyl}piperazin-1-yl)-3-fluorophenyl]-2-oxo-1,3-oxazolidin-5-yl}methyl)acetamide]: the MIC came to 4 mg/L (≈ 7.47 µM) with SAUR 9213 (setting [1]), 0.25 mg/L (≈ 0.467 µM) in the assay on SPNE 9912 (setting [1]) and 16 mg/L (≈ 29.9 µM) in the assay on HINF 30063 (setting [1]).

Regarding `CC(=O)NC[C@H]1CN(c2ccc(N3CCN(C(=O)CCCC#Cc4cccc(C#N)c4)CC3)c(F)c2)C(=O)O1` [Compound 14, N-{[(5S)-3-(4-{4-[6-(3-cyanophenyl)hex-5-ynoyl]piperazin-1-yl}-3-fluorophenyl)-2-oxo-1,3-oxazolidin-5-yl]methyl}acetamide], the MIC with SAUR 9213 (setting [1]) was 8 mg/L (≈ 15 µM); in the assay with SPNE 9912 (setting [1]), 2 mg/L (≈ 3.76 µM); with HINF 30063 (setting [1]), > 64 mg/L.

Consider `CC(=O)NC[C@H]1CN(c2cc(F)c(N3CCN(C(=O)CCCC#Cc4ccc(CN)cc4)CC3)c(F)c2F)C(=O)O1` [Compound 10, N-({(5S)-3-[4-(4-{6-[4-(aminomethyl)phenyl]hex-5-ynoyl}piperazin-1-yl)-2,3,5-trifluorophenyl]-2-oxo-1,3-oxazolidin-5-yl}methyl)acetamide], for which the MIC with SAUR 9213 (setting [1]) was found to be 4 mg/L (≈ 7 µM); with SPNE 9912 (setting [1]), 2 mg/L (≈ 3.5 µM); in the assay with HINF 30063 (setting [1]) it was 32 mg/L (≈ 56 µM).

Turning to `CC(=O)NC[C@H]1CN(c2ccc(N3CCN(C(=O)CCC#Cc4ccc(C[C@H](N)C(=O)O)cc4)CC3)c(F)c2)C(=O)O1` [Compound 13, 4-{5-[4-(4-{(5S)-5-[(acetylamino)methyl]-2-oxo-1,3-oxazolidin-3-yl}-2-fluorophenyl)piperazin-1-yl]-5-oxopent-1-ynyl}-L-phenylalanine], the figures for the MIC in the assay on SAUR 9213, in the assay with SPNE 9912 and in the assay with HINF 30063 were > 64 mg/L, 64 mg/L (≈ 110 µM) and > 64 mg/L, respectively.

For the molecule `CC(=O)NC[C@H]1CN(c2ccc(N3CCN(C(=O)CCCC#Cc4ccc(Cn5ccnc5)cc4)CC3)c(F)c2)C(=O)O1` [Compound 18, N-({(5S)-3-[3-fluoro-4-(4-{6-[4-(1H-imidazol-1-ylmethyl)phenyl]hex-5-ynoyl}piperazin-1-yl)phenyl]-2-oxo-1,3-oxazolidin-5-yl}methyl)acetamide], the MIC in the assay with SAUR 9213 (setting [1]) was 16 mg/L (≈ 27.3 µM); in the assay on SPNE 9912 (setting [1]), 2 mg/L (≈ 3.41 µM); in the assay on HINF 30063 (setting [1]), > 64 mg/L.

For `CC(=O)NC[C@H]1CN(c2ccc(N3CCN(C(=O)CCC#Cc4ccc(O)cc4)CC3)c(F)c2)C(=O)O1` [Compound 30, N-{[(5S)-3-(3-fluoro-4-{4-[5-(4-hydroxyphenyl)pent-4-ynoyl]piperazin-1-yl}phenyl)-2-oxo-1,3-oxazolidin-5-yl]methyl}acetamide], the MIC in the assay with SAUR 9213 (setting [1]) amounted to 4 mg/L (≈ 7.87 µM); in the assay on SPNE 9912 (setting [1]), 1 mg/L (≈ 1.97 µM); in the assay with HINF 30063 (setting [1]), 64 mg/L (≈ 126 µM).

Consider `CC(=O)NC[C@H]1CN(c2ccc(N3CCN(C(=O)CCC#Cc4c[nH]c(=O)[nH]c4=O)CC3)c(F)c2)C(=O)O1` [Compound 22, N-{[(5S)-3-(4-{4-[5-(2,4-dioxo-1,2,3,4-tetrahydropyrimidin-5-yl)pent-4-ynoyl]piperazin-1-yl}-3-fluorophenyl)-2-oxo-1,3-oxazolidin-5-yl]methyl}acetamide], for which the MIC was determined as 32 mg/L (≈ 60.8 µM) in the assay on SAUR 9213 (setting [1]), 4 mg/L (≈ 7.6 µM) in the assay with SPNE 9912 (setting [1]) and 32 mg/L (≈ 60.8 µM) in the assay with HINF 30063 (setting [1]).

Turning to `CC(=O)NC[C@H]1CN(c2ccc(N3CCN(C(=O)CCCC#Cc4ccc(O)cc4)CC3)c(F)c2)C(=O)O1` [Compound 7, N-{[(5S)-3-(3-Fluoro-4-{4-[6-(4-hydroxyphenyl)hex-5-ynoyl]piperazin-1-yl}phenyl)-2-oxo-1,3-oxazolidin-5-yl]methyl}acetamide], the figures for the MIC with SAUR 9213 (setting [1]), in the assay on SPNE 9912 (setting [1]) and in the assay with HINF 30063 (setting [1]) were 4 mg/L (≈ 7.65 µM), 1 mg/L (≈ 1.91 µM) and > 64 mg/L, respectively.

Turning to `CC(=O)NC[C@H]1CN(c2ccc(N3CCN(C(=O)CCCC#Cc4ccc(/C(C)=N/O)cc4)CC3)c(F)c2)C(=O)O1` [Compound 15, N-[((5S)-3-{3-fluoro-4-[4-(6-{4-[(1E)-N-hydroxyethan-imidoyl]-phenyl}hex-5-ynoyl)piperazin-1-yl]phenyl}-2-oxo-1,3-oxazolidin-5-yl)methyl]-acetamide, HCl salt], the MIC in the assay on SAUR 9213 (setting [1]) is > 16 mg/L; with SPNE 9912 (setting [1]), 2 mg/L; in the assay on HINF 30063 (setting [1]), > 16 mg/L.

As to `CC(=O)NC[C@H]1CN(c2ccc(N3CCN(C(=O)CCC#Cc4cccc(CN)c4)CC3)c(F)c2)C(=O)O1` [Compound 33, N-({(5S)-3-[4-(4-{5-[3-(aminomethyl)phenyl]pent-4-ynoyl}piperazin-1-yl)-3-fluorophenyl]-2-oxo-1,3-oxazolidin-5-yl}-methyl)acetamide], the MIC in the assay with SAUR 9213 (setting [1]) came to 4 mg/L (≈ 7.67 µM); in the assay on SPNE 9912 (setting [1]) it was 1 mg/L (≈ 1.92 µM); in the assay with HINF 30063 (setting [1]), 16 mg/L (≈ 30.7 µM).

With `CC(=O)NC[C@H]1CN(c2ccc(N3CCN(C(=O)CCCC#Cc4ccc(C(C)=O)cc4)CC3)c(F)c2)C(=O)O1` [Compound 17, N-{[(5S)-3-(4-{4-[6-(4-acetylphenyl)hex-5-ynoyl]piperazin-1-yl}-3-fluorophenyl)-2-oxo-1,3-oxazolidin-5-yl]methyl}acetamide], the MIC was > 64 mg/L with SAUR 9213 (setting [1]), 2 mg/L (≈ 3.65 µM) with SPNE 9912 (setting [1]) and > 64 mg/L with HINF 30063 (setting [1]).

On to `C#CCCC(=O)N1CCN(c2ccc(N3C[C@H](CNC(C)=O)OC3=O)cc2F)CC1` [Compound 8, N-[((5S)-3-{3-fluoro-4-[4-(4-pentynoyl)-1-piperazinyl]phenyl}-2-oxo-1,3-oxazolidin-5-yl)methyl]acetamide], for which the results for the MIC in the assay on SAUR 9213 (setting [1]), in the assay on SPNE 9912 (setting [1]) and with HINF 30063 (setting [1]) were 4 mg/L (≈ 9.6 µM), < 0.5 mg/L and > 32 mg/L, respectively.

For `CC(=O)NC[C@H]1CN(c2cc(F)c(N3CCN(C(=O)CCCC#Cc4cccc(CN)c4)CC3)c(F)c2F)C(=O)O1` [Compound 11, N-({(5S)-3-[4-(4-{6-[3-(aminomethyl)phenyl]hex-5-ynoyl}piperazin-1-yl)-2,3,5-trifluorophenyl]-2-oxo-1,3-oxazolidin-5-yl}methyl)acetamide], the MIC in the assay on SAUR 9213 (setting [1]) came to 4 mg/L (≈ 7 µM); with SPNE 9912 (setting [1]) it was 2 mg/L (≈ 3.5 µM); with HINF 30063 (setting [1]), 16 mg/L (≈ 28 µM).

Regarding `CC(=O)NC[C@H]1CN(c2ccc(N3CCN(C(=O)CCCCC#Cc4cccc(CN)c4)CC3)c(F)c2)C(=O)O1` [Compound 32, N-({(5S)-3-[4-(4-{7-[3-(aminomethyl)phenyl]hept-6-ynoyl}-piperazin-1-yl)-3-fluorophenyl]-2-oxo-1,3-oxazolidin-5-yl}methyl)acetamide], the figures for the MIC in the assay with SAUR 9213 (setting [1]), in the assay with SPNE 9912 (setting [1]) and in the assay on HINF 30063 (setting [1]) were 4 mg/L (≈ 7.28 µM), 2 mg/L (≈ 3.64 µM) and 64 mg/L (≈ 116 µM), respectively.

On to `CC(=O)NC[C@H]1CN(c2ccc(N3CCN(C(=O)CCCC#Cc4ccc(/C(N)=N/O)cc4)CC3)c(F)c2)C(=O)O1.Cl` [Compound 12, N-[((5S)-3-{4-[4-(6-{4-[(Z)-amino(hydroxyimino)methyl]-phenyl}hex-5-ynoyl)piperazin-1-yl]-3-fluorophenyl}-2-oxo-1,3-oxazolidin-5-yl)methyl]-acetamide hydrochloride], for which the MIC in the assay on SAUR 9213 (setting [1]) is 16 mg/L; in the assay on SPNE 9912 (setting [1]) it was 2 mg/L; in the assay with HINF 30063 (setting [1]), > 64 mg/L.

`CC(=O)NC[C@H]1CN(c2ccc(N3CCN(C(=O)CCCCC#Cc4cccc(O)c4)CC3)c(F)c2)C(=O)O1` [Compound 25, N-{[(5S)-3-(3-fluoro-4-{4-[7-(3-hydroxyphenyl)hept-6-ynoyl]piperazin-1-yl}phenyl)-2-oxo-1,3-oxazolidin-5-yl]methyl}acetamide]: the MIC in the assay on SAUR 9213 (setting [1]) is 8 mg/L (≈ 14.9 µM); in the assay on SPNE 9912 (setting [1]) it was 2 mg/L (≈ 3.73 µM); in the assay with HINF 30063 (setting [1]) it was > 64 mg/L.

With `C#CCCCCC(=O)N1CCN(c2ccc(N3C[C@H](CNC(C)=O)OC3=O)cc2F)CC1` [Compound 31, N-({(5S)-3-[3-fluoro-4-(4-hept-6-ynoylpiperazin-1-yl)phenyl]-2-oxo-1,3-oxazolidin-5-yl}methyl)acetamide], the MIC is 4 mg/L (≈ 9 µM) in the assay on SAUR 9213 (setting [1]), 1 mg/L (≈ 2.25 µM) in the assay with SPNE 9912 (setting [1]) and 64 mg/L (≈ 144 µM) in the assay with HINF 30063 (setting [1]).

As to `CC(=O)NC[C@H]1CN(c2ccc(N3CCN(CC#Cc4ccccc4)CC3)c(F)c2)C(=O)O1` [Compound 9, N-[((5S)-3-{3-fluoro-4-[4-(3-phenylprop-2-ynyl)piperazin-1-yl]phenyl}-2-oxo-1,3-oxazolidin-5-yl)methyl]acetamide], the figures for the MIC with SAUR 9213 (setting [1]), with SPNE 9912 (setting [1]) and in the assay with HINF 30063 (setting [1]) were 4 mg/L (≈ 8.88 µM), 2 mg/L (≈ 4.44 µM) and 16 mg/L (≈ 35.5 µM), respectively.

Take `CC(=O)NC[C@H]1CN(c2ccc(N3CCN(C(=O)CCC#Cc4cccc(O)c4)CC3)c(F)c2)C(=O)O1` [Compound 29, N-{[(5S)-3-(3-fluoro-4-{4-[5-(3-hydroxyphenyl)pent-4-ynoyl]piperazin-1-yl}phenyl)-2-oxo-1,3-oxazolidin-5-yl]methyl}acetamide]: the MIC in the assay on SAUR 9213 (setting [1]) was 4 mg/L (≈ 7.87 µM); in the assay on SPNE 9912 (setting [1]) it was 1 mg/L (≈ 1.97 µM); in the assay with HINF 30063 (setting [1]), > 64 mg/L.

For the origin of these results see patent US20040204463A1, “N-aryl-2-oxazolidinone-5-carboxamides and their derivatives” (priority 2003, published 2004).
